Data: patent US8128914B2, “Topical compositions containing CIS-6-nonenol and its derivatives and methods for treating skin” (Avon Products, Inc, priority 2008, dated 2012)

Tested on: Metallothionein 2A (MT2A) mRNA
Experiment: Stimulation of Metallothioneins: MT2A mRNA in normal human dermal fibroblasts (QuantiGene multiplex branched DNA assay)
Type: cell-based
Conditions: 24 hours, vs ethanol vehicle control, p<0.05
Experimental: Normal human dermal fibroblasts were cultured in 96 well tissue culture treated plates, containing appropriate culture medium. Stock solution of cis-6 nonenol was made in ethanol. Cells were treated with test material or ethanol vehicle control diluted in growth medium for 24 hours in a humidified 37° C. incubator with 10% CO2. After incubation, growth medium from each plate was removed and 100 μl of lysis buffer was added to the wells and placed in 37° C. incubator with 10% CO2 for 30 minutes. At the end of incubation, the cells were collected in freezer plates and placed in −80° C. freezer, until analysis. Changes in mRNA for Metallothionein 2A (MT2A) after treatment were analysed using Panomics' QuantiGene® multiplex assay that employs a branched DNA technology. Percent increase in mRNA for MT2A was calculated by comparing the test results to that of the vehicle control. […] All results reported are statistically significant at p<0.05.

CC/C=C\CCCCCO [Cis-6-nonenol, cis-6-nonenol]
stimulation in mRNA levels for Metallothionein 2A (0.001% cis-6-nonenol): 97%
stimulation in mRNA levels for Metallothionein 2A (0.01% cis-6-nonenol): 96%
